Source: patent publication US20240209028A1, “CNP COMPOUNDS” (priority 2022, published 2024)
Each block holds one compound with its values, some of them ahead of it. Starred links: 1 amine or outer side, 2 acyl side, 3 side chain; linkers in the order of their positions; H or OH if unused. Positions of bridges follow the written chain, without caps; N, C: chain ends. Residues, ends and D or L forms follow the SMILES beside them. *: point of attachment. C18 diacid = O=C(O)CCCCCCCCCCCCCCCCC(=O)*; γGlu = O=C(O)[C@H](CCC(=O)[*:2])N[*:1]; AEEA = NCCOCCOCC(=O)O

Target: T1, human natriuretic peptide receptor 2 (hNPR2) (Homo sapiens, UniProt P20594)
T1 construct: expressed in transfected cells; host or cells: HEK293 (ATCC CRL-1573), clone 35, co-transfected with pGloSensor-42F
T1 sequence (P20594 23-1047): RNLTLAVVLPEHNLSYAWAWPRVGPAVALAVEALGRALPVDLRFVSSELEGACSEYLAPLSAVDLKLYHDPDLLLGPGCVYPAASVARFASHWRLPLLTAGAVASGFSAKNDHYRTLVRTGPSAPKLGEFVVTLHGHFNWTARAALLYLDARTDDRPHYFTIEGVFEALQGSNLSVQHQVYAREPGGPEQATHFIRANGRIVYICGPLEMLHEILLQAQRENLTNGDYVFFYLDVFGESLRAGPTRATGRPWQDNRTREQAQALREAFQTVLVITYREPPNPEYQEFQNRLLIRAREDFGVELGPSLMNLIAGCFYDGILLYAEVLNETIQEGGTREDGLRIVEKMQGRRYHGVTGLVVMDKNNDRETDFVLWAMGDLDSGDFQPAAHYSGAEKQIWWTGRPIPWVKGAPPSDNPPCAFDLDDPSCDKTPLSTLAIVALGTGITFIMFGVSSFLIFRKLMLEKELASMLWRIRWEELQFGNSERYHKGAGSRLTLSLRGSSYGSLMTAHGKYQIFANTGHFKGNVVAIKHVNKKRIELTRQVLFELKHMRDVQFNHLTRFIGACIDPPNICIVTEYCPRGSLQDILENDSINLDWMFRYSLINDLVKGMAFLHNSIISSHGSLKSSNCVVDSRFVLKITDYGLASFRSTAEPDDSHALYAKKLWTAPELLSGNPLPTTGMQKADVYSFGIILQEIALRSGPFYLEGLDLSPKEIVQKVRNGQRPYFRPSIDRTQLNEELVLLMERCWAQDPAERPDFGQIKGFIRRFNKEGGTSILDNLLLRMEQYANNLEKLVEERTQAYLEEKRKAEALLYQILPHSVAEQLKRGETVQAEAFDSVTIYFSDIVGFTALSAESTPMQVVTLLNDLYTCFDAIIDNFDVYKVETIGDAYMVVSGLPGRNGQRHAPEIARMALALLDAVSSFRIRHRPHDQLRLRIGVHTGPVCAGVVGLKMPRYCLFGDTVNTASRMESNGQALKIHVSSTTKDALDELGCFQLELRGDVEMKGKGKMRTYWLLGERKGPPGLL
Experiment: In vitro hNPR2 activity assay (cGMP GloSensor reporter, HEK293)
Assay type: cell-based
Conditions: for EC50: 0% HSA, HEK293-hNPR2/GloSensor cells; for hNPR2 0% HSA. [EC50% rel CNP]: potency relative to CNP22 (0065)
Method in brief: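 Potency is the EC50 from a four-parameter logistic fit, also expressed relative to the in-plate CNP22 control (×100), with at least two replicates. Compounds (ten concentrations, […], HSA-free diluent with 1% OVA, 0.01% Tween20) were incubated 30 min at 37 °C on HEK293 cells co-expressing hNPR2 and a GloSensor cGMP luciferase. Luminescence detected with Bright-Glo.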

Structure (SMILES): CC[C@H](C)[C@@H]1NC(=O)[C@H](CCCNC(=N)N)NC(=O)[C@H](CCC(=O)O)NC(=O)[C@H](CC(C)C)NC(=O)[C@@H]2CCCN2C(=O)[C@H](CC(C)C)NC(=O)CNC(=O)[C@H](Cc2ccccc2)NC(=O)[C@@H](NC(=O)CNC(=O)[C@H](CO)NC(=O)[C@H](CO)NC(=O)[C@H](CC(C)C)NC(=O)CNC(=O)[C@H](CCCCN)NC(=O)[C@H](CCCCN)NC(=O)[C@H](CCC(N)=O)NC(=O)[C@H](C)NC(=O)CNC(=O)[C@H](CCC(=O)O)NC(=O)[C@H](Cc2ccc(O)cc2)NC(=O)COCCOCCNC(=O)COCCOCCNC(=O)CC[C@H](NC(=O)CCCCCCCCCCCCCCCCC(=O)O)C(=O)O)CSSC[C@@H](C(=O)O)NC(=O)CNC(=O)[C@H](CC(C)C)NC(=O)CNC(=O)[C@H](CO)NC(=O)[C@H](CC(C)C)NC(=O)[C@H](CO)NC(=O)CNC1=O [compound 1338] ({C18 diacid-γGlu-AEEA-AEEA}-YEGAQKKGLSSGCFGLPLERIGSLSGLGC-OH; disulfide 13-29)
EC50: 6.77 nM
hNPR2 0% HSA. [EC50% rel CNP]: 1.3%

Structure (SMILES): CC[C@H](C)[C@@H]1NC(=O)[C@H](CCCNC(=N)N)NC(=O)[C@H](CC(=O)O)NC(=O)[C@H](CC(C)C)NC(=O)[C@@H]2CCCN2C(=O)[C@H](CC(C)C)NC(=O)CNC(=O)[C@H](Cc2ccccc2)NC(=O)[C@@H](NC(=O)CNC(=O)[C@H](CO)NC(=O)[C@H](CO)NC(=O)[C@H](CC(C)C)NC(=O)CNC(=O)[C@H](CCCCN)NC(=O)[C@H](CCCCN)NC(=O)[C@H](CCC(N)=O)NC(=O)[C@H](C)NC(=O)CNC(=O)[C@H](CCC(=O)O)NC(=O)COCCOCCNC(=O)COCCOCCNC(=O)CC[C@H](NC(=O)CCCCCCCCCCCCCCCCC(=O)O)C(=O)O)CSSC[C@@H](C(=O)O)NC(=O)CNC(=O)[C@H](CC(C)C)NC(=O)CNC(=O)[C@H](CO)NC(=O)[C@H](CC(C)C)NC(=O)[C@H](CO)NC(=O)CNC1=O [compound 1339] ({C18 diacid-γGlu-AEEA-AEEA}-EGAQKKGLSSGCFGLPLDRIGSLSGLGC-OH; disulfide 12-28)
hNPR2 0% HSA. [EC50% rel CNP]: 15.5%

Structure (SMILES): CC[C@H](C)[C@@H]1NC(=O)[C@H](CCCNC(=N)N)NC(=O)[C@H](CC(=O)O)NC(=O)[C@H](CC(C)C)NC(=O)[C@H](CCCCN)NC(=O)[C@H](CC(C)C)NC(=O)CNC(=O)[C@H](Cc2ccccc2)NC(=O)[C@@H](NC(=O)CNC(=O)[C@H](CCC(N)=O)NC(=O)[C@H](CO)NC(=O)[C@H](CC(C)C)NC(=O)CNC(=O)[C@H](Cc2c[nH]cn2)NC(=O)[C@H](Cc2c[nH]cn2)NC(=O)[C@H](CCC(N)=O)NC(=O)[C@H](C)NC(=O)CNC(=O)[C@H](CCCCN)NC(=O)[C@H](Cc2ccc(O)cc2)NC(=O)COCCOCCNC(=O)COCCOCCNC(=O)CC[C@H](NC(=O)CCCCCCCCCCCCCCCCC(=O)O)C(=O)O)CSSC[C@@H](C(=O)O)NC(=O)CNC(=O)[C@H](CC(C)C)NC(=O)CNC(=O)[C@H](CO)NC(=O)[C@H](CC(C)C)NC(=O)[C@H](CO)NC(=O)CNC1=O [compound 1340] ({C18 diacid-γGlu-AEEA-AEEA}-YKGAQHHGLSQGCFGLKLDRIGSLSGLGC-OH; disulfide 13-29)
EC50: 0.18 nM
hNPR2 0% HSA. [EC50% rel CNP]: 44.4%

Structure (SMILES): CC[C@H](C)[C@@H]1NC(=O)[C@H](CCCNC(=N)N)NC(=O)[C@H](CC(=O)O)NC(=O)[C@H](CC(C)C)NC(=O)[C@@H]2CCCN2C(=O)[C@H](CC(C)C)NC(=O)CNC(=O)[C@H](Cc2ccccc2)NC(=O)[C@@H](NC(=O)CNC(=O)[C@H](CCC(N)=O)NC(=O)[C@H](CO)NC(=O)[C@H](CC(C)C)NC(=O)CNC(=O)[C@H](Cc2c[nH]cn2)NC(=O)[C@H](Cc2c[nH]cn2)NC(=O)[C@H](CCC(N)=O)NC(=O)[C@H](C)NC(=O)CNC(=O)[C@H](CCCCN)NC(=O)[C@H](Cc2ccc(O)cc2)NC(=O)COCCOCCNC(=O)COCCOCCNC(=O)CC[C@H](NC(=O)CCCCCCCCCCCCCCCCC(=O)O)C(=O)O)CSSC[C@@H](C(=O)O)NC(=O)CNC(=O)[C@H](CC(C)C)NC(=O)CNC(=O)[C@H](CO)NC(=O)[C@H](CC(C)C)NC(=O)[C@H](CO)NC(=O)CNC1=O [compound 1341] ({C18 diacid-γGlu-AEEA-AEEA}-YKGAQHHGLSQGCFGLPLDRIGSLSGLGC-OH; disulfide 13-29; C-terminus assumed)
hNPR2 0% HSA. [EC50% rel CNP]: 16.7%

EC50: 0.38 nM
hNPR2 0% HSA. [EC50% rel CNP]: 21.1%
Structure (SMILES): CC[C@H](C)[C@@H]1NC(=O)[C@H](CCCNC(=N)N)NC(=O)[C@H](CC(=O)O)NC(=O)[C@H](CC(C)C)NC(=O)[C@H](CCCCN)NC(=O)[C@H](CC(C)C)NC(=O)CNC(=O)[C@H](Cc2ccccc2)NC(=O)[C@@H](NC(=O)CNC(=O)[C@H](CCCCN)NC(=O)[C@H](CO)NC(=O)[C@H](CC(C)C)NC(=O)CNC(=O)[C@H](Cc2c[nH]cn2)NC(=O)[C@H](Cc2c[nH]cn2)NC(=O)[C@H](CCC(N)=O)NC(=O)[C@H](C)NC(=O)CNC(=O)[C@H](Cc2c[nH]cn2)NC(=O)[C@H](Cc2ccc(O)cc2)NC(=O)COCCOCCNC(=O)COCCOCCNC(=O)CC[C@H](NC(=O)CCCCCCCCCCCCCCCCC(=O)O)C(=O)O)CSSC[C@@H](C(=O)O)NC(=O)CNC(=O)[C@H](CC(C)C)NC(=O)CNC(=O)[C@H](CO)NC(=O)[C@H](CC(C)C)NC(=O)[C@H](CO)NC(=O)CNC1=O [compound 1345] ({C18 diacid-γGlu-AEEA-AEEA}-YHGAQHHGLSKGCFGLKLDRIGSLSGLGC-OH; disulfide 13-29)

Structure (SMILES): CC[C@H](C)[C@@H]1NC(=O)[C@H](CCCNC(=N)N)NC(=O)[C@H](CC(=O)O)NC(=O)[C@H](CC(C)C)NC(=O)[C@@H]2CCCN2C(=O)[C@H](CC(C)C)NC(=O)CNC(=O)[C@H](Cc2ccccc2)NC(=O)[C@@H](NC(=O)CNC(=O)[C@H](CCCCN)NC(=O)[C@H](CO)NC(=O)[C@H](CC(C)C)NC(=O)CNC(=O)[C@H](Cc2c[nH]cn2)NC(=O)[C@H](Cc2c[nH]cn2)NC(=O)[C@H](CCC(N)=O)NC(=O)[C@H](C)NC(=O)CNC(=O)[C@H](Cc2c[nH]cn2)NC(=O)[C@H](Cc2ccc(O)cc2)NC(=O)COCCOCCNC(=O)COCCOCCNC(=O)CC[C@H](NC(=O)CCCCCCCCCCCCCCCCC(=O)O)C(=O)O)CSSC[C@@H](C(=O)O)NC(=O)CNC(=O)[C@H](CC(C)C)NC(=O)CNC(=O)[C@H](CO)NC(=O)[C@H](CC(C)C)NC(=O)[C@H](CO)NC(=O)CNC1=O [compound 1346] ({C18 diacid-γGlu-AEEA-AEEA}-YHGAQHHGLSKGCFGLPLDRIGSLSGLGC-OH; disulfide 13-29; C-terminus assumed)
hNPR2 0% HSA. [EC50% rel CNP]: 17.0%

Structure (SMILES): CC[C@H](C)[C@@H]1NC(=O)[C@H](CCCNC(=N)N)NC(=O)[C@H](CC(=O)O)NC(=O)[C@H](CC(C)C)NC(=O)[C@@H]2CCCN2C(=O)[C@H](CC(C)C)NC(=O)CNC(=O)[C@H](Cc2ccccc2)NC(=O)[C@@H](NC(=O)CNC(=O)[C@H](Cc2c[nH]cn2)NC(=O)[C@H](CO)NC(=O)[C@H](CC(C)C)NC(=O)CNC(=O)[C@H](CCCCN)NC(=O)[C@H](CCCCN)NC(=O)[C@H](CCC(N)=O)NC(=O)[C@H](C)NC(=O)CNC(=O)COCCOCCNC(=O)COCCOCCNC(=O)CC[C@H](NC(=O)CCCCCCCCCCCCCCCCC(=O)O)C(=O)O)CSSC[C@@H](C(=O)O)NC(=O)CNC(=O)[C@H](CC(C)C)NC(=O)CNC(=O)[C@H](CO)NC(=O)[C@H](CC(C)C)NC(=O)[C@H](CO)NC(=O)CNC1=O [compound 1347] ({C18 diacid-γGlu-AEEA-AEEA}-GAQKKGLSHGCFGLPLDRIGSLSGLGC-OH; disulfide 11-27; C-terminus assumed)
hNPR2 0% HSA. [EC50% rel CNP]: 15.4%

Structure (SMILES): CC[C@H](C)[C@@H]1NC(=O)[C@H](CCCNC(=N)N)NC(=O)[C@H](CC(=O)O)NC(=O)[C@H](CC(C)C)NC(=O)[C@@H]2CCCN2C(=O)[C@H](CC(C)C)NC(=O)CNC(=O)[C@H](Cc2ccccc2)NC(=O)[C@@H](NC(=O)CNC(=O)[C@H](CO)NC(=O)[C@H](Cc2c[nH]cn2)NC(=O)[C@H](CC(C)C)NC(=O)CNC(=O)[C@H](CCCCN)NC(=O)[C@H](CCCCN)NC(=O)[C@H](CCC(N)=O)NC(=O)[C@H](C)NC(=O)CNC(=O)COCCOCCNC(=O)COCCOCCNC(=O)CC[C@H](NC(=O)CCCCCCCCCCCCCCCCC(=O)O)C(=O)O)CSSC[C@@H](C(=O)O)NC(=O)CNC(=O)[C@H](CC(C)C)NC(=O)CNC(=O)[C@H](CO)NC(=O)[C@H](CC(C)C)NC(=O)[C@H](CO)NC(=O)CNC1=O [compound 1348] ({C18 diacid-γGlu-AEEA-AEEA}-GAQKKGLHSGCFGLPLDRIGSLSGLGC-OH; disulfide 11-27)
hNPR2 0% HSA. [EC50% rel CNP]: 31.4%
